Experimental data reported in patent publication US5902794A (priority 1997, dated 1999).

Experiments:
[1] = system: MCF-7 ras breast cancer cell line; assay: synergistic growth inhibition by C-6 and C-8 analogue combination; format: cell-based; settings: Homo sapiens, MCF7; alone, 1.0 μM; read-out: percentage growth inhibition of analogue added alone
Protocol: (§1) All breast cancer cell lines were grown in IMEM supplemented with 10% fetal bovine serum, 20 mM HEPES, penicillin-streptomycin, and extra glutamine. Colon carcinoma cell lines were grown in EMEM supplemented with 10% FBS, EMEM, NEAA, HEPES 20 mM, extra glutamine, and penicillin-streptomycin. The cells were grown at 37° C. in humidified incubators in an atmosphere of 5% CO2.
(§2) For cell growth experiments, 2-3×10^5 cells/60 mm dish were seeded, and 24 hours later (Day 0), the medium was removed, and fresh medium and the additives were added then and every 48 hours thereafter The compounds of the present invention were added using 100× concentrated stock solutions. At desired times, cell counts in duplicate were performed on a Coulter counter after harvesting the cells with gentle trypsinization.
Synergism quotient was defined as the net growth inhibitory effect of the analogue combination divided by the sum of the net analogue effects on growth inhibition A quotient of >1 indicates a synergistic effect, while a quotient of <1 indicates an antagonistic effect.
Synergism of growth inhibition was determined by treatment of
cells with C-6 analogues and C-8 analogues alone and in combination at
Day 0 and Day 2 and counting the cell number at Day 4

[2] = system: breast and colon cancer cells; assay: effect on cell morphology; format: cell-based, human
Excerpt: The photographs were taken on Day 4, ×160.
Furthermore, the synergistic growth inhibitory effect of C-6 and C-8 analogue combinations was also reflected in the change in the cell morphology.

[3] = system: breast and colon cancer cell lines; assay: cell cycle progression of breast and colon cancer cell lines; format: cell-based, human; settings: vs untreated control cells
Protocol: DNA histograms were generated on FACS II by using the DNA intercalating dye propidium iodide as described by Braylan et al. (Cytometry 2: 337-343, 1982). The percentage of cells in each cycle phase was calculated by using a PDP-11/34 computer and software as described by Neckers et al. (Mol. Cell. Biol. 6: 4244-4250, 1986).
A determination was made whether the reduced cell proliferation observed in the cancer cell lines after treatment with the compounds of the present invention is due to a specific block in one phase of the cell cycle.

[4] = system: R^II cAMP receptor protein (MDA-MB-231); assay: photoaffinity labelling of R^II cAMP receptor protein, MDA-MB-231; format: cell-based, human; settings: 10 microM, 3 days; relative to control R^I
Protocol: (§3) M is marker proteins of known molecular weight.
(§4) The incubations were carried out at 23° C. for 60 minutes in 96-well immunoplates. The reaction mixtures were then irradiated for 30 seconds at 254 nm, placing a Mineralite UVS-11 hand lamp directly onto the plate. The samples were mixed with 25 microliters of 3× sample buffer (3% SDS, 15% beta-mercaptoethanol, 30 mM Tris, 30% glycerol, 1% bromophenol blue saturated solution), boiled for 3 minutes, and centrifuged at 700×g for five minutes. The samples containing 50-100 micrograms of protein were subjected to 0.05% SDS-12% PAGE. The gels were fixed, dried, and exposed to X-ray films overnight. The protein concentrations were determined by the method of Lowry et al., (J. Biol. Chem. 193: 265-275, 1951) with bovine serum albumin as standard.
(§5) The levels of the receptor proteins are expressed relative to the R^I level in the untreated control cells of MDA-MB-231 and LS-174T, which are each set equal to 1.0 O.D.; the scale was expanded to differentiate the lower intensity bands.

[5] = system: R^I cAMP receptor protein (LS-174T); assay: photoaffinity labelling of R^I cAMP receptor protein, LS-174T; format: cell-based, human; settings: 10 microM, 3 days; control 1.0
Protocol: as §3, §4, §5

[6] = system: R^II cAMP receptor protein (LS-174T); assay: photoaffinity labelling of R^II cAMP receptor protein, LS-174T; format: cell-based, human; settings: 10 microM, 3 days; relative to control R^I
Protocol: as §3, §4, §5

LS-174T = assay: growth of LS-174T cells; format: cell-based; settings: Homo sapiens, LS174T, 72 h; 10 microM, 3 days
Protocol: as §3, §1, §2

murine leukemia L1210 = assay: life span of L1210-inoculated BDF1 mice; format: in vivo, mouse
Excerpt: | Infusions by Harvard pumps.

NMU-2 = assay: growth of metastatic NMU-2 rat mammary carcinoma; format: in vivo; settings: pellet with 10 mg cAMP analogue, day 7
Protocol: NMU2, a variant of primary hormoneresponsive NMU tumor,
hormoneindependent, transplantable, and metastatic.
8Cl-cAMP and DBcAMP were given as a 20mg pellet consisting of 10 mg of […]

[7] = system: DMBA-induced mammary carcinomas; assay: in vivo growth of DMBA-induced mammary carcinomas in rats; parameters: species or system rat
Protocol: […] |DMBA-induced mammary carcinomas in rats […] | 10 mg. cholesterol), was implanted on day 0 and day 14.

[8] = system: transplantable DMBA-1 and MNA-2 rat mammary carcinomas; assay: short-term assays with transplantable rat mammary carcinomas; format: in vivo; settings: 10-mg pellet, within one week
HL-60 cells = assay: differentiation markers (surface antigens) in HL-60 cells; format: cell-based, human; settings: three days
[9] = system: R^I cAMP receptor protein (Molt-4); assay: R^I cAMP receptor protein in Molt-4 leukemic cells; format: cell-based, human; settings: 5 micromol/L, three days
Excerpt: M marker proteins of known molecular weight. […] The resulting supernatants were used as cell lysates. […] ND=nondetectable.

[10] = system: HT-29 colon cancer cell line
R^II = settings: cited from earlier work
R^I receptor = settings: cited from earlier work

## Nc1ncnc2c1nc(Cl)n2[C@@H]1O[C@@H]2COP(=O)(O)O[C@H]2[C@H]1O [8-Cl-cAMP]
[1]
  inhibition at 1 µM: 20%
[2]; 1 microM alone, four days
  morphological change: did not induce a change in the cell morphology
[2]; 50 microM, four to five days
  morphological change: characteristic morphological change
[3]
  fractions of cells in G1, S and G2/M phases, in words: not appreciably different
[4]
  R^II relative level: 0.15 ± 0.01
[5]
  R^I relative level: 0.20 ± 0.02
[6]
  R^II relative level: 0.25 ± 0.02
LS-174T
  activity at 10 µM: 30%
Murine leukemia L1210; 104 mg/kg bolus injection, seven consecutive days
  antitumor effect: no antitumor effect
Murine leukemia L1210; 104 mg/kg bolus, seven consecutive days
  tolerability in L1210-bearing mice: tolerated
Murine leukemia L1210; 104 mg/kg/day constant infusion, five days
  increase in mean life span: 37%
NMU-2
  Change in mean tumor volume: 1.10 cm^3
[7]; 10 mg pellet implanted twice every two weeks
  tumor growth, in words: completely stopped tumor growth
[7]; within 30 days
  tumor regression within 30 days: ~100%
[8]
  growth inhibition: 40-50%
HL-60 cells
  markers of immature progenitor cells (My7, My9), in words: decrease in markers related to the immature progenitor cells
  monocyte-specific surface antigens (MO2, OKM5), in words: marked increase in the expression
[9]
  R^I receptor protein, in words: markedly decreased
[10]
  8-Cl-adenosine in cell extracts: no 8-Cl-adenosine was present
  8-Cl-adenosine in cell extracts or medium: 8-Cl-adenosine was not detected
  8-Cl-adenosine in medium: no 8-Cl-adenosine was present
  cell penetration of intact compound: penetrated the cell
R^II
  site selectivity of binding, R^II: selectively binds to site 1
R^I receptor
  site selectivity of binding, R^I: binds to site 2
